The source of these data is patent US11813277B2, “Methods and agents for modulating inflammation” (The Regents of the University of California, priority 2018, dated 2023).

Assay [1] concerns BMDMs. Conditions: concentrations as high as 100 μM etomoxir; cited from earlier work.
Assay [2] has as its system HepG2 hepatoma cells. Put plainly: Maximal respiration in intact HepG2 hepatoma cells (positive control). Type of assay: cell-based. The settings on record: 3 μM etomoxir. The procedure: All respirometry studies were conducted in either a Seahorse XF96 or XFe96 Analyzer. All experiments were conducted at 37° C., and at pH 7.4 (intact cells) or 7.2 (permeabilized cells and isolated mitochondria). Calculation of respiratory parameters was made according to standard protocols (Divakaruni, A. S., Paradyse, A., Ferrick, D. A., Murphy, A. N., and Jastroch, M. (2014a) Analysis and interpretation of microplate-based oxygen consumption and pH data. Meth. Enzym 547, 509-54), and all rates were corrected for non-mitochondrial respiration/background signal by subtracting the oxygen consumption rate insensitive to rotenone plus antimycin A.
Detailed description of FIG. 5. (FIG. 5A) Maximal FCCP-stimulated respiration in response to 3 μM etomoxir in six cell types (experimental conditions in Materials and Methods). […] (n≥3 independent biological replicates). (FIG. 5B) (Left) Maximal respiration in HepG2 cells offered 8 mM glucose, 2 mM glutamine, and 2 mM pyruvate in the experimental medium with BPTES and UK5099 (both at 3 μM)±3 μM etomoxir. (n=4 independent biological replicates). (Right) Maximal respiration in 3T3-L1 adipocytes offered 1 mM glucose and 0.5 mM carnitine in the experimental medium with increasing concentrations of etomoxir. (n=3 independent biological replicates). […]

The subject of assay [3] is M(IL-4) polarization of BMDMs. As to the kind of experiment: Flow cytometry of IL-4-associated cell surface markers in BMDMs. It counts as cell-based, mouse. The procedure: For all gene expression and flow cytometry experiments described below, day 6 BMDM were plated at 3×10^5 cell/well in 12-well plates. The next day, cells were treated with appropriate compounds (and duration as indicated in figures and below) in DMEM supplemented with 5% FBS, 2 mM L-glutamine, 100 units/mL, 100 μg/mL penicillin/streptomycin, 500 μM of sodium pyruvate and 5% v/v conditioned media containing macrophage colony stimulating factor (M-CSF).
For flow cytometry experiments involving etomoxir (FIG. 1G, FIG. 2A, FIG. 2D, FIG. 3A, FIG. 3B, FIG. 3G, FIG. 3H): BMDMs were mock-treated (media replacement only) or treated with 20 ng/mL of IL-4±3 μM or 200 μM of etomoxir for 48 hr. When measuring expression of M(IL-4)-associated genes in response to etomoxir (FIG. 1H, FIG. 2B), BMDMs were mock-treated or treated with 20 ng/mL of IL4±etomoxir as indicated for 24 hr.
For experiments involving respiratory chain inhibitors: BMDMs were mock-treated (media replacement only) or treated with 20 ng/mL of IL4±1.2 μM oligomycin (Oligo), 200 nM rotenone (Rot), 200 nM antimycin A (AntiA), 100 nM piericidin A (PierA), or 5 μM carboxyatractylate (CAT) for either 24 (FIG. 4G, FIG. 4H, FIG. 6G) or 48 hr (FIG. 4F, FIG. 7D). All inhibitors were given as co-treatments simultaneously with IL-4.
For experiments involving CoA supplementation (FIG. 10A, FIG. 10B, FIG. 10C, FIG. 10D, FIG. 10E, FIG. 9C, FIG. 9D): BMDMs were mock-treated (media replacement only) or treated with 20 ng/mL of IL4±etomoxir (concentration indicated in figures)±CoA (concentration indicated in figures) for 48 hr. Etomoxir and CoA were given as co-treatments simultaneously with IL-4.
Prior to FACS analysis, BMDMs were detached using 350 μL of Accutase, followed by two washes with FACS buffer (PBS+1% (v/v) BSA+0.05% (w/v) sodium azide). Anti-mouse CD16/32 antibody was used at a dilution of 1:500, while all other antibodies were used at a dilution of 1:250. All flow cytometry data were captured using BD FACSVerse flow cytometer and analyzed using the FlowJo X 10.0.7r2 software. In all, 2×104 live events were acquired for each sample (gated on DAPIneg). For analysis, CD206+/CD71+ and CD206+/CD301+ populations were gated based on Fluorescence Minus One (FMO) controls.

The test system of assay [4] is permeabilized HepG2 or A549 cells. Put plainly: ADP- vs FCCP-stimulated respiration in permeabilized cells, etomoxir added directly. Type of assay: cell-based. The settings on record: high concentrations of etomoxir.

Regarding `CCOC(=O)[C@@]1(CCCCCCOc2ccc(Cl)cc2)CO1` [etomoxir], in assay [1], the “respiration in BMDMs” value is given as “lack of significant changes in respiration”. Also, the respiration result in assay [2] is “sufficient to inhibit respiration”. For the same compound, the “CD206+/CD71+ expression in WT and Cpt1a-/- macrophages” value in assay [3] (3 μM etomoxir) is “lack of an effect”; in assay [3] (200 μM etomoxir), “robust block”. Also, the “expression levels of IL-4-induced CD206, CD71, CD301” value in assay [3] (3 μM etomoxir, IL-4 20 ng/mL) was “no effect”. For the same compound, the “population of CD206+/CD71+ cells” value was “strongly reduced” in assay [3] (200 μM etomoxir, IL-4) and “proportionally decreased” in assay [3] (500 μM CoA, etomoxir 3-100 μM). Also, in assay [3] (200 μM etomoxir, IL-4), the “population of CD301+ cells” value was “little effect”. In addition, the “concentration at which significant changes in macrophage polarization were observed” value in assay [3] (CD206+/CD71+, IL-4) is greater than 100 µM. For the same compound, the “respiration driven by ADP versus FCCP” value in assay [4] is “greater inhibitory effect on respiration driven by ADP versus FCCP”.
